Each structure is given as a SMILES string. A value given as a limit tells only on which side of the number the result lay.

This passage reports CC50 and EC50 results from ChEMBL document CHEMBL1151585, “Aryl phosphate derivates of AZT inhibit HIV replication in cells where the nucleoside is poorly active” (Bioorg Med Chem Lett, 1992).

Series [1] can be described thus: Toxic dose of compound which causes 50% cytotoxicity towards HIV-1 uninfected JM cells. Type of series: toxicity, cell-based, JM1. As to conditions: human, read-out: TD50 (the source's name).
In a further series the test system is JM1. Nature of the series: Effective dose of compound that decreases antigen production in HIV-1 infected JM cells to 50% of control. Conditions: Homo sapiens, read-out: ED50 (the source's name). Type of series: functional.

Regarding `COC(=O)C(C)NP(=O)(OCC1OC(n2cc(C)c(=O)[nH]c2=O)CC1N=[N+]=[N-])Oc1ccc([N+](=O)[O-])cc1` (stereo not drawn), the CC50 in series [1] stood at 300 µM. Moreover, the EC50 in the series on JM1 came out at 40 µM.
Taken in the same sequence, the figures for `COC(=O)C(CC(C)C)NP(=O)(OCC1OC(n2cc(C)c(=O)[nH]c2=O)CC1N=[N+]=[N-])Oc1ccccc1` (stereo not drawn) were 80 µM and 8 µM.
Taken in the same sequence, the figures for `COC(=O)[C@H](C)NP(=O)(OC[C@H]1O[C@@H](n2cc(C)c(=O)[nH]c2=O)C[C@@H]1N=[N+]=[N-])Oc1ccccc1` (stereo partly drawn) were 500 µM and 0.8 µM.
With `CCc1ccc(OP(=O)(NC(C)C(=O)OC)OCC2OC(n3cc(C)c(=O)[nH]c3=O)CC2N=[N+]=[N-])cc1` (stereo not drawn), the CC50 in series [1] came out at 40 µM. Also, the EC50 in the series on JM1 worked out at 0.4 µM.
With `COC(=O)C(C)NP(=O)(OCC1OC(n2cc(C)c(=O)[nH]c2=O)CC1N=[N+]=[N-])Oc1ccc(F)cc1` (stereo not drawn), in series [1], the CC50 was more than 200 µM. Besides, in the series on JM1, the EC50 was determined as 0.32 µM.
For the compound `COC(=O)C(C)NP(=O)(OCC1OC(n2cc(C)c(=O)[nH]c2=O)CC1N=[N+]=[N-])Oc1ccc(OC)cc1` (stereo not drawn), the CC50 in series [1] is 100 µM. Further, the EC50 with JM1 came out at 0.8 µM.
`COC(=O)C(Cc1ccccc1)NP(=O)(OCC1OC(n2cc(C)c(=O)[nH]c2=O)CC1N=[N+]=[N-])Oc1ccccc1` (stereo not drawn): the CC50 in series [1] was determined as 100 µM. Further, the EC50 in the series on JM1 came to 1.6 µM.
The corresponding values for `COC(=O)CNP(=O)(OCC1OC(n2cc(C)c(=O)[nH]c2=O)CC1N=[N+]=[N-])Oc1ccccc1` (stereo not drawn) are 1000 µM and 100 µM.
Taken in the same sequence, the figures for `Cc1cn([C@H]2C[C@H](N=[N+]=[N-])[C@@H](CO)O2)c(=O)[nH]c1=O` [ZIDOVUDINE] were more than 1000 µM and 100 µM.
